Columns and labels:
healthy rabbit = details: intravenous administration; cited from earlier work
[1] = test system: rabbits having received a dose of endotoxins equal to 12 EU/kg; assay: Pyrogen test in rabbits: lowering of the body temperature increase caused by intravenously injected endotoxins; format: in vivo, rabbit; details: xylitol 1.5 g/kg, ASPEGIC 100 mg/kg where present; for Difference compared with the positive control of contamination (%): lowering of the endotoxin-induced temperature increase versus Batch 2, endotoxins 12 EU/kg i.v., significant when greater than 5%; for Temperature increase (° C.): mean temperature difference, 3 rabbits per batch, endotoxins 12 EU/kg intravenously
From the text: Specifically, the pyrogen test in rabbits is the test described in the European Pharmacopoeia for verifying, in vivo, the apyrogenicity of certain molecules intended to be administered parenterally.
Thus, the applicant company, a producer of molecules intended to be administered parenterally, therefore used this test, which it has perfected, under the conditions described in the European Pharmacopoeia, in order to determine the body temperature-lowering effects of xylitol alone, and of xylitol combined with an antipyretic.
The experiment is carried out with batches of laboratory animals, in this instance here, rabbits.
The solutions to be injected are prepared in sterile water (water for injectable preparation—AGUETTANT).
The bottles of endotoxins (control standard Entotoxin or CSE—ENDOSAFE) contain 5 ml of endotoxins at 30 EU/ml with 120 ml of water for injectable preparation.
The contamination is calculated so as to observe a pyrogenic shock in the rabbit. This contamination is produced by intravenously injecting endotoxins in a proportion of 1.2 EU/ml, i.e. 12 EU/kg.
The antipyretic agent, in this instance aspirin, is prepared extemporaneously. 6.6 ml are added to 125 ml of endotoxins so as to obtain a dose equivalent to 100 mg/kg. The aspirin chosen is injectable ASPEGIC® (DL-lysine acetyl salicylate), manufactured by Laboratoires SYNTHELABO (LE PLESSIS ROBINSON), packed in proportion of 6 bottles of 2 g of powder and 6 vials of 5 ml of water for injectable preparation, for extemporaneous dissolution.
The xylitol is a batch of apyrogenic XYLISORB® manufactured by the applicant company. Apyrogenic dextrose monohydrate (marketed under the trademark LYCADEX® PF by the applicant company) is used as a control.
The rabbits are injected with a solution of xylitol at 150 g/l with water for injectable solution contaminated or not contaminated with the endotoxins. Five experiments are carried out with 3 rabbits per batch.

Compound	effect on body temperature of the laboratory animal (healthy rabbit)	Difference compared with the positive control of contamination (%) [1] [%]	Temperature increase (° C.) [1] [°C]
methylephedrine	lowers the body temperature	–	–
CC(=O)Oc1ccccc1C(=O)O (racemic) [Batch 3, DL-lysine acetyl salicylate]	–	46	1.57
OC[C@@H](O)[C@H](O)[C@@H](O)CO [Batch 4, xylitol]	lowers the body temperature	7.5	2.73
